# Measured values from US10544150B2, “NK-3 receptor selective antagonist compounds, pharmaceutical composition and methods for use in NK-3 receptors mediated disorders” (Ogeda SA, priority 2010, dated 2020).
# Biological target: human NK-3 receptor (Homo sapiens (Human), UniProt P29371)
# Test: 3H-SB222200 binding competition assay with human NK-3 receptor
# Details: 3H-SB222200 displacement, CHO cell membranes expressing human NK3 receptor; read-out: Ki range
# Experimental: The affinity of compounds of the invention for the tachykinin receptors was determined by measuring the ability of the compounds of the invention to displace a radiolabeled ligand from its specifics binding site.
# ^3H-SB222200 Binding Competition Assay with Human NK-3 Receptor
# The ability of the compounds of the invention to inhibit the binding of the NK-3 receptor selective antagonist SB222200 was assessed by an in vitro radioligand binding assay. Membranes were prepared from Chinese hamster ovary recombinant cells which express the human NK3 receptor. The membranes were incubated with 5 nM ^3H-SB222200_(ARC) in a HEPES 25 mM/NaCl 0.1M/CaCl2 1 mM/MgCl2 5 Mm/BSA 0.5%/Saponin 10 μg/ml buffer at pH 7.4 and various concentrations of the compounds of the invention. The amount of tritiated SB222200 bound to the receptor was determined after filtration by the quantification of membrane associated radioactivity using the TopCount-NXT reader (Packard). […] In Table 3 biological results obtained using the ^3H-SB222200 binding competition assay with compounds of the invention are set out in tabulated form. In this table the calculated Ki is given. The Ki value obtained (in accordance with the protocol set forth above) is represented as follows: “+++” means Ki<500 nM; “++” means 500 nM≤Ki≤1 μM; “+” means 1 μM<Ki≤5 μM; “#” means Ki>5 μM.
# human NK-3 receptor, sequence (P29371 whole entry): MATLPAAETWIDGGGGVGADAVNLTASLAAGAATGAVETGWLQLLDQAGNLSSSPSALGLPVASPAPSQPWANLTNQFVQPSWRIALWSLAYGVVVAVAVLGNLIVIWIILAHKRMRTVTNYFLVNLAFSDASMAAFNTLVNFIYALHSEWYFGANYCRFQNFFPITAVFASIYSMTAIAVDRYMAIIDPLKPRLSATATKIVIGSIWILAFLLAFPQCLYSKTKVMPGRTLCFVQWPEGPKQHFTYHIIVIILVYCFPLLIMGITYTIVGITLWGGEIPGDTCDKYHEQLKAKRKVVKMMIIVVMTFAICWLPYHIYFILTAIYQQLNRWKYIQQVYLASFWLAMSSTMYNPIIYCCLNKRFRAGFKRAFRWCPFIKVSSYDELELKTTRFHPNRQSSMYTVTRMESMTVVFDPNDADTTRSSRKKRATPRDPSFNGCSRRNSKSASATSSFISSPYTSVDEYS
row,Structure (SMILES),Ki [nM]
1,"O=C(C1CCC(c2ccccc2)CC1)N1CCn2c(nnc2-c2ccc3ccccc3n2)C1 (centres unmarked) [Compound 93, (4-phenylcyclohexyl)(3-(quinolin-2-yl)-5,6-dihydro-[1,2,4]triazolo[4,3-a]pyrazin-7(8H)-yl)methanone]",1000 to 5000
2,"C[C@@H]1c2nnc(-c3csc(N4CCOCC4)n3)n2CCN1C(=O)c1ccc(-c2ccccc2)cc1 [Compound 118, (R)-[1,1′-biphenyl]-4-yl(8-methyl-3-(2-morpholinothiazol-4-yl)-5,6-dihydro-[1,2,4]triazolo[4,3-a]pyrazin-7(8H)-yl)methanone]",< 500
3,"CC1c2nnc(-c3csc(-c4ccc(F)cc4)n3)n2CCN1C(=O)c1ccc(-c2cccs2)cc1 (centres unmarked) [Compound 78, (3-(2-(4-fluorophenyl)thiazol-4-yl)-8-methyl-5,6-dihydro-[1,2,4]triazolo[4,3-a]pyrazin-7(8H)-yl)(4-(thiophen-2-yl)phenyl)methanone]",< 500
4,"O=C(c1ccc(-c2ccccc2)cc1)N1CCn2c(nnc2-c2coc(-c3ccccc3)n2)C1 [Compound 50, [1,1′-biphenyl]-4-yl(3-(2-phenyloxazol-4-yl)-5,6-dihydro-[1,2,4]triazolo[4,3-a]pyrazin-7(8H)-yl)methanone]",< 500
5,"O=C(c1ccc(-c2ccc(F)cc2)cc1)N1CCn2c(nnc2-c2csc(Cn3cnc(Cl)c3Cl)n2)C1 [Compound 187, (3-(2-((4,5-dichloro-1H-imidazol-1-yl)methyl)thiazol-4-yl)-5,6-dihydro-[1,2,4]triazolo[4,3-a]pyrazin-7(8H)-yl)(4′-fluoro-[1,1′-biphenyl]-4-yl)methanone]",1000 to 5000
6,"C[C@@H]1c2nnc(-c3coc(-c4ccccc4)n3)n2CCN1C(=O)c1ccc(-c2ccccc2)cc1 [Compound 131, (R)-[1,1′-biphenyl]-4-yl(8-methyl-3-(2-phenyloxazol-4-yl)-5,6-dihydro-[1,2,4]triazolo[4,3-a]pyrazin-7(8H)-yl)methanone]",< 500
7,"O=C(c1ccc(-c2cccs2)cc1)N1CCn2c(nnc2-c2nc(-c3ccccc3)ns2)C1 [Compound 211, (3-(3-phenyl-1,2,4-thiadiazol-5-yl)-5,6-dihydro-[1,2,4]triazolo[4,3-a]pyrazin-7(8H)-yl)(4-(thiophen-2-yl)phenyl)methanone]",< 500
8,"O=C(c1ccc(-c2cccs2)cc1)N1CCn2c(nnc2-c2n[nH]c(-c3ccccc3)n2)C1 [Compound 179, (3-(5-phenyl-1H-1,2,4-triazol-3-yl)-5,6-dihydro-[1,2,4]triazolo[4,3-a]pyrazin-7(8H)-yl)(4-(thiophen-2-yl)phenyl)methanone]",< 500
9,"O=C(c1ccc(F)cc1)N1CCn2c(nnc2-c2cccc(N3CCCC3)n2)C1 [Compound 37, (4-fluorophenyl)(3-(6-(pyrrolidin-1-yl)pyridin-2-yl)-5,6-dihydro-[1,2,4]triazolo[4,3-a]pyrazin-7(8H)-yl)methanone]",< 500
10,"CC1c2nnc(-c3csc(-c4ccc(F)cc4)n3)n2CCN1C(=O)c1ccc(F)cc1 (centres unmarked) [Compound 70, (4-fluorophenyl)(3-(2-(4-fluorophenyl)thiazol-4-yl)-8-methyl-5,6-dihydro-[1,2,4]triazolo[4,3-a]pyrazin-7(8H)-yl)methanone]",< 500
11,"Cc1nc(-c2ccccc2)sc1-c1nnc2n1CCN(C(=O)c1ccc(-c3ccccc3)cc1)C2C (centres unmarked) [Compound 72, [1,1′-biphenyl]-4-yl(8-methyl-3-(4-methyl-2-phenylthiazol-5-yl)-5,6-dihydro-[1,2,4]triazolo[4,3-a]pyrazin-7(8H)-yl)methanone]",< 500
12,"CC1Cn2c(nnc2-c2csc(-c3ccc(F)cc3)n2)CN1C(=O)c1ccc(-c2cccs2)cc1 (centres unmarked) [Compound 107, (3-(2-(4-fluorophenyl)thiazol-4-yl)-6-methyl-5,6-dihydro-[1,2,4]triazolo[4,3-a]pyrazin-7(8H)-yl)(4-(thiophen-2-yl)phenyl)methanone]",500 to 1000
13,"C[C@H]1c2nnc(-c3nc(-c4ccc(F)cc4)no3)n2CCN1C(=O)c1ccc(-c2cccs2)cc1 [Compound 168, (S)-(3-(3-(4-fluorophenyl)-1,2,4-oxadiazol-5-yl)-8-methyl-5,6-dihydro-[1,2,4]triazolo[4,3-a]pyrazin-7(8H)-yl)(4-(thiophen-2-yl)phenyl)methanone]",< 500
14,"O=C(c1ccc(-c2cccs2)cc1)N1CCn2c(nnc2-c2csc(-c3cccc(F)c3)n2)C1 [Compound 207, (3-(2-(3-fluorophenyl)thiazol-4-yl)-5,6-dihydro-[1,2,4]triazolo[4,3-a]pyrazin-7(8H)-yl)(4-(thiophen-2-yl)phenyl)methanone]",< 500
15,"O=C(c1ccc(F)cc1)N1CCn2c(nnc2-c2csc(-c3ccc(F)cc3F)n2)C1 [Compound 29, (3-(2-(2,4-difluorophenyl)thiazol-4-yl)-5,6-dihydro-[1,2,4]triazolo[4,3-a]pyrazin-7(8H)-yl)(4-fluorophenyl)methanone]",< 500
16,"O=C(c1ccc(-c2ccccc2)cc1)N1CCn2c(nnc2-c2ccc3ccccc3n2)C1 [Compound 19, [1,1′-biphenyl]-4-yl(3-(quinolin-2-yl)-5,6-dihydro-[1,2,4]triazolo[4,3-a]pyrazin-7(8H)-yl)methanone]",< 500

# Next, values leading:
row,Ki [nM],Structure (SMILES)
1,< 500,"CC1c2nnc(-c3csc(-c4ccc(F)cc4)n3)n2CCN1C(=O)c1ccc(C#N)cc1 (centres unmarked) [Compound 216, 4-(3-(2-(4-fluorophenyl)thiazol-4-yl)-8-methyl-5,6,7,8-tetrahydro-[1,2,4]triazolo[4,3-a]pyrazine-7-carbonyl)benzonitrile]"
2,< 500,"O=C(c1ccc(F)cc1)N1CCn2c(nnc2-c2csc(-c3ccccc3O)n2)C1 [Compound 271, (4-fluorophenyl)(3-(2-(2-hydroxyphenyl)thiazol-4-yl)-5,6-dihydro-[1,2,4]triazolo[4,3-a]pyrazin-7(8H)-yl)methanone]"
3,< 500,"CC1CN(c2nc(-c3nnc4n3CCN(C(=O)c3ccc(-c5cccs5)cc3)C4)cs2)CC(C)O1 (centres unmarked) [Compound 265, (3-(2-(2,6-dimethylmorpholino)thiazol-4-yl)-5,6-dihydro-[1,2,4]triazolo[4,3-a]pyrazin-7(8H)-yl)(4-(thiophen-2-yl)phenyl)methanone]"
4,< 500,"O=C(c1ccc(-c2cccs2)cc1)N1CCn2c(nnc2-c2csc(-c3cnccn3)n2)C1 [Compound 235, (3-(2-(pyrazin-2-yl)thiazol-4-yl)-5,6-dihydro-[1,2,4]triazolo[4,3-a]pyrazin-7(8H)-yl)(4-(thiophen-2-yl)phenyl)methanone]"
5,500 to 1000,"CN(C)c1ccc(C(=O)N2CCn3c(nnc3-c3csc(-c4ccc(F)cc4)n3)C2)cc1 [Compound 253, (4-(dimethylamino)phenyl)(3-(2-(4-fluorophenyl)thiazol-4-yl)-5,6-dihydro-[1,2,4]triazolo[4,3-a]pyrazin-7(8H)-yl)methanone]"
6,< 500,"Cn1nc(-c2nnc3n2CCN(C(=O)c2ccc(F)cc2)C3)cc1-c1ccccc1 [Compound 238, (4-fluorophenyl)(3-(1-methyl-5-phenyl-1H-pyrazol-3-yl)-5,6-dihydro-[1,2,4]triazolo[4,3-a]pyrazin-7(8H)-yl)methanone]"
7,1000 to 5000,"O=C(c1ccccc1)N1CCn2c(nnc2-c2ccccn2)C1 [Compound 231, phenyl(3-(pyridin-2-yl)-5,6-dihydro-[1,2,4]triazolo[4,3-a]pyrazin-7(8H)-yl)methanone]"
